These are literature values, as cited in US20110052683A1, “PHARMACEUTICAL PREPARATION FOR TREATING CARDIOVASCULAR DISEASE” (priority 2008, published 2011).

For data set [1] the following is noted: combined administration of atorvastatin with diltiazem.
The conditions of data set [2]: combined administration of lovastatin with diltiazem.
The conditions of data set [3]: combined administration of pravastatin with verapamil.

Turning to `CC(C)c1c(C(=O)Nc2ccccc2)c(-c2ccccc2)c(-c2ccc(F)cc2)n1CC[C@@H](O)C[C@@H](O)CC(=O)O` [atorvastatin], in data set [1], the “side effects of combined administration” value is “occurrence of rhabdomyolysis and acute hepatitis”.
As to `CC[C@H](C)C(=O)O[C@H]1C[C@@H](C)C=C2C=C[C@H](C)[C@H](CC[C@@H]3C[C@@H](O)CC(=O)O3)[C@H]21` [lovastatin], the “change in Cmax and AUC” value in data set [2] was “sudden increase in Cmax and AUC”.
As for `CC[C@H](C)C(=O)O[C@H]1C[C@H](O)C=C2C=C[C@H](C)[C@H](CC[C@@H](O)C[C@@H](O)CC(=O)O)[C@H]21` [pravastatin], in data set [3], the “increase in AUC” value is reported as 31% and the “increase in Cmax” value is given as 42%.
